How the values were obtained:
[1] = tested on: MCF7; assay: Inhibition of miR-27a (unknown origin) transfected in human MCF7 cells assessed as fold increase at 20 uM by luciferase assay; assay type: cell-based
[2] = Inhibition of miR-122 (unknown origin) by luciferase signalling
[3] = Inhibition of pri-miR-122 (unknown origin) at 10 uM relative to control
[4] = tested on: Hepatitis C virus; assay: Antiviral activity against HCV; assay type: functional, Hepacivirus hominis
[5] = tested on: Huh7 (Homo sapiens); assay: Inhibition of miR-122 in human Huh7 cells assessed as fold increase at 10 uM by luciferase signal
[6] = Inhibition of mature miR-122 (unknown origin) at 10 uM relative to control
[7] = Inhibition of miR-122 (unknown origin)
[8] = Induction of human MDA-MB-231 cells assessed as induces increasing in apoptotic rate by western blot analysis relative to control; assay type: functional
[9] = tested on: pre-miR-544 (human); assay: Effect on pre-miR-544 in human MCF-10A cells assessed as fold increasing level
[10] = tested on: miR-544 (human); assay: Effect on miR-544 in human MCF-10A cells assessed as reduction in expression level relative to control; parameters: scale not given: the % may be the effect or the level left
[11] = tested on: HepG2; assay: Cytotoxicity against human HepG2 cells assessed as reduction in cell viability measured after 24 hrs at 10 uM relative to control; assay type: toxicity, cell-based; settings: hepg2, 24 h
[12] = Activation of miR-122 (unknown origin) by luciferase assay
[13] = Effect on pre-miR-210 in human MDA-MB-231 cells assessed as fold increase at 200 nM; assay type: functional
[14] = Inhibition of miR-210 (unknown origin)
[15] = In vivo inhibition of miR-210 in human MDA-MB-231 cells xenografted with SCID mouse assessed as reduction in protein level under hypoxia condition relative to control; assay type: functional; parameters: scale not given: the % may be the effect or the level left
[16] = Effect on pri-miR-210 in human MDA-MB-231 cells assessed as fold increase at 200 nM; assay type: functional
[17] = Upregulation of GPD1L in human MDA-MB-231 cells assessed as fold increase in expression level; assay type: functional
[18] = In vivo inhibition of miR-210 in human MDA-MB-231 cells xenografted with SCID mouse assessed as reduction in […] level at 20 pmol relative to control; parameters: scale not given: the % may be the effect or the level left
[19] = Effect on miR-96 in human MCF7 cells assessed as decrease in expression level at 40 uM relative to control; assay type: functional; parameters: scale not given: the % may be the effect or the level left
[20] = Inhibition of miR-206 (unknown origin)
[21] = Inhibition of myomiRs (unknown origin)
[22] = Activation of miRNA (unknown origin)
[23] = tested on: HCT-116; assay: Antiproliferative activity against human HCT-116 cells assessed as reduction in cell viability measured after 72 hrs by MTT assay; assay type: functional, cell-based; settings: HCT-116, 72 h
[24] = Inhibition of miR-21 in human HeLa cells assessed as inhibition; assay type: cell-based
[25] = tested on: HeLa; assay: Inhibition of pri-miR-21 in human HeLa cells assessed as reduction in expression level at 10 uM relative to control; assay type: cell-based
[26] = Inhibition of miRNA (unknown origin) by fluorescence polarization assay
[27] = Inhibition of miRNA (unknown origin)
[28] = tested on: MCF7; assay: Inhibition of miR-21 in human MCF7 cells assessed as fold increase at 10 uM by luciferase signalling assay; assay type: cell-based
[29] = tested on: MCF7; assay: Induction of apoptosis human MCF7 cells at 5 uM assessed as fold increase in apoptotic rate; assay type: functional
[30] = tested on: MCF7; assay: Inhibition of miR-21 in human MCF7 cells assessed as fold increase in PDCD4 protein level; assay type: cell-based

Question: Which fold change (FC) [1] does the source give for NC[C@@H]1O[C@H](O[C@H]2[C@@H](O)[C@H](O[C@@H]3[C@@H](O)[C@H](N)C[C@H](N)[C@H]3O[C@H]3O[C@H](CN)[C@@H](O)[C@H](O)[C@H]3N)O[C@@H]2CO)[C@H](N)[C@@H](O)[C@@H]1O here?
Answer: The fold change (FC) was 1.2.

Question: Which IC50 [2] does the source give for O=S(=O)(c1ccc2c(c1)CCCN2)N1CCC[C@H]2CCCC[C@@H]21 here?
Answer: Its IC50 is 600 nM.

Question: What about the inhibition [3] of the same compound?
Answer: Its inhibition is 90%.

Question: What about the Activity [4] of the same compound?
Answer: The Activity was 50%.

Question: What about the fold change (FC) [5] of the same compound?
Answer: Its fold change (FC) is 12.5.

Question: With O=C(Nc1ccc2ccccc2c1)c1ccc(Cl)cc1Cl as the compound, how does the inhibition [6] read?
Answer: The inhibition was 50%.

Question: And the IC50 [7]?
Answer: The IC50 was 3000 nM.

Question: What about the Activity [4] of the same compound?
Answer: Its Activity is 50%.

Question: What about the fold change (FC) [5] of the same compound?
Answer: The fold change (FC) was 7.7.

Question: Which results are given for N#Cc1c(N2CCCC2)nc(N)c2c(N)nc(N3CCCC3)cc12?
Answer: Activity [8]: 60%; fold change (FC) [9]: 2; Activity [10]: 90%

Question: For CN(C)CCN1C(=O)c2cccc3cccc(c23)C1=O, which Activity [11] is on record?
Answer: The Activity was 80%.

Question: And the EC50 [12]?
Answer: The EC50 was 3000 nM.

Question: Which “fold change (FC)” value [13] does the source give for CN1CCN(c2ccc3nc(-c4ccc5[nH]c(-c6cccc(OCCCC(=O)NCCN=[N+]=[N-])c6)nc5c4)[nH]c3c2)CC1 here?
Answer: The value was 2.6.

Question: And the IC50 [14]?
Answer: The IC50 was 200 nM.

Question: And the Activity [15]?
Answer: Its Activity is 90%.

Question: What about the “fold change (FC)” value [16] of the same compound?
Answer: Its value is 3.

Question: What about the “fold change (FC)” value [17] of the same compound?
Answer: Its value is 5.

Question: What about the Activity [18] of the same compound?
Answer: The Activity was 75%.

Question: With CN1CCN(c2ccc3nc(-c4cc(C(C)(C)C)c(OCCCC(=O)NCCCN=[N+]=[N-])c(C(C)(C)C)c4)[nH]c3c2)CC1 as the compound, how does the Activity [19] read?
Answer: Its Activity is 90%.

Question: Which results are given for COC12C(=O)c3ccccc3C(=O)C1C(c1ccccc1)=C2c1ccc(OC(=O)OC(C)(C)C)c2ncccc12 (configuration not stated)?
Answer: IC50 [20]: 5000 nM; IC50 [21]: 2500 nM

Question: Which results are given for CCn1cc(C(=O)O)c(=O)c2cc(F)c(N3CCNCC3)nc21 [ENOXACIN]?
Answer: EC50 [22]: 30000 nM; EC50 [23]: 124000 nM

Question: For C#CCNC(=O)c1ccc(/N=N/c2ccc(N)cc2)cc1, which EC50 [24] is on record?
Answer: Its EC50 is 2000 nM.

Question: And the inhibition [25]?
Answer: Its inhibition is 80%.

Question: Which IC50 [26] does the source give for O=C(O)C1=CC(=C(c2ccc(O)c(C(=O)O)c2)c2ccc(O)c(C(=O)O)c2)C=CC1=O [AURINTRICARBOXYLIC ACID] here?
Answer: Its IC50 is 470 nM.

Question: What about the IC50 [27] of the same compound?
Answer: Its IC50 is 470 nM.

Question: With CN[C@@H]1[C@H](O[C@H]2[C@H](O[C@H]3[C@H](O)[C@@H](O)[C@H](N=C(N)N)[C@@H](O)[C@@H]3N=C(N)N)O[C@@H](C)[C@]2(O)C=O)O[C@@H](CO)[C@H](O)[C@H]1O [STREPTOMYCIN] as the compound, how does the fold change (FC) [28] read?
Answer: Its fold change (FC) is 1.4.

Question: And the “fold change (FC)” value [29]?
Answer: Its value is 2.

Question: What about the fold change (FC) [30] of the same compound?
Answer: The fold change (FC) was 2.

From ChEMBL document CHEMBL5244200, “MicroRNAs as novel endogenous targets for regulation and therapeutic treatments” (Medchemcomm, 2018)
